Data on 3 molecules can be found in patent US6528524B2, “Pharmaceutical compositions containing cinchonine dichlorhydrate” (Debiopharm SA, priority 1997, dated 2003).

Where a name gives a salt, the structure may show the parent alone. Read-outs that look alike come from different tables or passages of the source.

A short description of data set [1]: Stability of cinchonine dihydrochloride in aqueous solution (NMR spectra day 0 vs day 30). Type of data set: physicochemical. The settings on record: aqueous solution kept at ambient temperature and in the light for 30 days. The procedure: The ^1H and ^13C spectra were built up using samples of 100 mg and 20 mg respectively in 0.5 ml of deuterated methanol.
The NMR spectra were obtained using a Bruker DRX 500 spectrometer fitted with a so-called “reversible” sensor.
The aqueous solution was kept at ambient temperature and in the light for 30 days. After 30 days, the NMR spectra were recorded in the same way as above.

Data set [2] can be described thus: In vivo bioavailability / pharmacokinetic study in Beagle dogs. As to conditions: for C20 min / T1/2 a / half-life: dose 50 mg/kg; for C20 min: blood concentration 20 minutes after administration; for T1/2 a / half-life: absorption; for half-life: Beagle, dog, blood, read-out: T1/2 a. Also on record: C20 min: unit not given here. The procedure:
These tests were performed in four “Beagle” dogs, two of which were male and two female.
Each dog received, on day 1, a dose of 50 mg per kg of cinchonine dihydrochloride and, on day 8, an equivalent dose of cinchonine monohydrochloride. Blood samples were taken at regular intervals after each administration.

The conditions of data set [3]: cited from earlier work.
The mark [4] stands for this setting: Beagle dog F2 (female), dihydrochloride.
Where [5] appears, read: Beagle dog M1 (male), dihydrochloride.
The mark [6] stands for this setting: Beagle dog F1 (female), monohydrochloride.
[7] abbreviates: Beagle dog F2 (female), monohydrochloride.
Where [8] appears, read: Beagle dog M1 (male), monohydrochloride.
Where [9] appears, read: Beagle dog M2 (male), monohydrochloride.

Regarding `C=C[C@H]1C[N@@]2CC[C@H]1C[C@@H]2[C@@H](O)c1ccnc2ccccc12` [CDH, cinchonine dihydrochloride], the “Stability (NMR spectra on day 0 and day 30)” value was “remarkable stability” in data set [1] (listed as Cinchonine dihydrochloride) and “unchanged” in data set [1] (listed as cinchonine dihydrochloride). The C20 min in data set [2] (Beagle dog F1 (female), dihydrochloride) is reported as 2.05; in data set [2] (setting [4]) it was 3.68; in data set [2] (setting [5]), 0.23; in data set [2] (Beagle dog M2 (male), dihydrochloride), 2.1. Further, the T1/2 a in data set [2] (setting [4]) was 20.4 s; in data set [2] (setting [5]) it was 15.6 s. The “absorption time, compared with cinchonine monohydrochloride” value in data set [2] (Beagle dogs, 50 mg/kg) is listed as “greater than that of cinchonine monohydrochloride”. In data set [2] (Beagle dogs, 50 mg/kg), the “blood concentration 20 minutes after administration, compared with cinchonine monohydrochloride” value is on record as “greater than that of cinchonine monohydrochloride”. The half-life in data set [2] (female, 50 mg/kg, Beagle dog F1 (female)) was determined as 6 s; in data set [2] (male, 50 mg/kg, Beagle dog M2 (male)), 23.4 s.

On to `C=C[C@H]1C[N@@]2CC[C@H]1C[C@@H]2[C@@H](O)c1ccnc2ccccc12` [CMH, cinchonine monohydrochloride, reference compound], for which the T1/2 a is 3 s in data set [2] (setting [6]), 6.6 s in data set [2] (setting [7]), 3.6 s in data set [2] (setting [8]) and 14.4 s in data set [2] (setting [9]). Also, the C20 min in data set [2] (setting [6]) came out at 1.04; in data set [2] (setting [7]) it was 1.66; in data set [2] (setting [8]) it was 0; in data set [2] (setting [9]) it was 0.25.

Consider `C=C[C@H]1C[N@@]2CC[C@H]1C[C@@H]2[C@@H](O)c1ccnc2ccccc12` [cinchonine], for which the solubility in water result in data set [3] is reported as “very sparingly soluble in water”.
